In patent US10478436B2, “Application of 5-HT6 receptor antagonists for the alleviation of cognitive deficits of down syndrome” (The University of Utah Research Foundation, priority 2011, dated 2019):
“Also recorded” adds a separate entry of the source.

Tests used:
control mice = assay: Exploratory paradigm: ability to recognize a novel object in a novel location (discrimination ratio), control littermates; type: in vivo, mouse; conditions: 3.0 mg/kg i.p.
Protocol: (§1) Male Ts65Dn/DnJ mice and male littermates were obtained from a commercial supplier (Jackson Laboratory, Bar Harbor, Me.), and tested at approximately 12-32 weeks of age, at a weight of 25-30 grams. Animals were kept on a 12 hour light/dark cycle and experimentation was conducted during the light portion of the cycle. Animals had unlimited access to food and water. All animals used were housed individually to limit the interference of social interaction on cognitive test performance. Animal care and experimental testing procedures conformed to NIH, IACUC, and AALAC standards and protocols.
(§2) Ts65Dn are compared to their control littermates for the effects of excipients and compounds in altering the performance and rescue of deficits in the Ts65Dn DS mouse model.
The apparatus for these experiments consisted of a 40 cm×40 cm Plexiglas box with clear walls and a dark grey floor. The box was placed on a circular white table 1 m in diameter. […]
The experimental paradigms utilized the inherent tendency of rodents to differentially explore novel stimuli over familiar stimuli. […] Exploration was recorded with an overhead video camera and the duration of exploration was measured with a stopwatch. […]
The duration of exploration of the Novel and Familiar stimuli during the Test Phase was individually measured with stopwatches, rounding to the 0.5 second. […]

Ts65Dn mice = assay: Exploratory paradigm: ability to recognize a novel object in a novel location (discrimination ratio), Ts65Dn Down syndrome mice; type: in vivo, mouse; conditions: for cognition (discrimination ratio) compared to treatment with vehicle alone: Ts65Dn mice; for cognition (discrimination ratio) compared to treatment with vehicle alone / cognitive performance (discrimination ratio) compared to no treatment / vehicle alone: 10 mg/kg i.p.; for cognitive performance (discrimination ratio) compared to no treatment / vehicle alone: 9-month-old Ts65Dn mice
Protocol: as §1, with “Male Ts65Dn/DnJ mice and male littermates were obtained from a commercial supplier (Jackson Laboratory, Bar Harbor, Me.), and tested at approximately 12-32 weeks of age, at a weight of 25-30 grams.” left out
as §2
The apparatus for these experiments consisted of a 40 cm×40 cm Plexiglas box with clear walls and a dark grey floor. The box was placed on a circular white table 1 m in diameter. Four distinct, approximately 20 cm×20 cm black and white shapes were placed 30 cm away from the midpoint of each side of the box. Objects were made from various washable, non-porous materials (plastic, metal, glass, etc.), 2-7 cm in height and varied in color, pattern and texture. To prevent odor cues, all apparatus and objects were disinfected and deodorized with HDQ after each use.
The experimental paradigms utilized the inherent tendency of rodents to differentially explore novel stimuli over familiar stimuli. Exploration was defined as any investigative behavior where mice have active and direct contact with an object. Such behaviors included head orientation and sniffing within <1.0 cm of the object, pawing, biting, or crawling over the objects. Exploration was recorded with an overhead video camera and the duration of exploration was measured with a stopwatch. The week prior to testing, all animals were handled in daily sessions and given an opportunity to habituate to the clear or red apparatus. Each experimental session presented the animal with new object sets and tests were separated by a minimum 48 hour interval. It should be noted that order effects are not normally observed in exploration tasks. Each test consisted of a Habituation Phase, during which mice display reduced exploration over time as a function of habituation, and a Test Phase on novelty detection that is interpreted to reflect recognition memory.
For each of the 7 compounds 1-7, the compound was administered to Ts65Dn mice via i.p. injection at a concentration of 3.0 mg/kg (compound 1) or 10 mg/kg (compounds 2, 3, 4, 5, 6, and 7) body weight delivered in a vehicle of methyl cellulose+0.2% tween 80 solution, while additional Ts65Dn mice were administered with vehicle alone. Each animal received a volume (ml) of drug in vehicle equal to 1% of its body weight (g) or an equal volume of vehicle alone. Forty minutes after the compound is injected, the Habituation phase begins. Therefore, the Test phase occurs 60 minutes after administration of the drug.
For each experiment the animal was placed in center of the clear acrylic box and presented with two different objects spaced 15 cm apart for 15 minutes of free explorations of the apparatus, stimulus objects, and distal environmental cues (Habituation Phase). After the Habituation Phase, a black container was placed over the mouse for a 5-minute Delay. During this delay, one object was exchanged with a new, unfamiliar object in a novel location (novel object), while the other object is replaced with an identical object in the same location (familiar object). Following the delay the black container was removed, beginning the Test Phase and the mouse is allowed to re-explore for 5 minutes (Test Phase).
The duration of exploration of the Novel and Familiar stimuli during the Test Phase was individually measured with stopwatches, rounding to the 0.5 second. […] A zero score would reflect no preference for either the novel or familiar object. A positive score reflects a preference for exploration of the novel object, and is associated with the animal's level of hippocampal function and memory or cognition. […]

[1] = Hirst et al. (2006); cited from earlier work
[2] = test system: scopolamine-induced memory deficits; conditions: Mitchell and Neumaier (2008); cited from earlier work
mouse 5-HT6 receptor = mouse 5-HT6 receptor (Mus musculus, UniProt Q9R1C8); conditions: cited from earlier work
Chain of mouse 5-HT6 receptor (Q9R1C8 whole entry): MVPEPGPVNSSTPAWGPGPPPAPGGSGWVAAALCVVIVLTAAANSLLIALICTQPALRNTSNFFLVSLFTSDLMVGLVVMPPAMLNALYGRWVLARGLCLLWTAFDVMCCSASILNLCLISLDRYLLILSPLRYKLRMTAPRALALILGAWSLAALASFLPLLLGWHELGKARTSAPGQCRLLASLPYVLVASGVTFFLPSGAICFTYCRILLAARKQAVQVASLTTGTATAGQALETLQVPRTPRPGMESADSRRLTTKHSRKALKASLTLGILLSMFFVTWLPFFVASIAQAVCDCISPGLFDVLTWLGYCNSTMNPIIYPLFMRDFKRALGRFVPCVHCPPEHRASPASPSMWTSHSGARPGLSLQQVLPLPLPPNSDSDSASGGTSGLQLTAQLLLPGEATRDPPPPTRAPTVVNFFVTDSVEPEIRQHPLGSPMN

rat 5-HT6 receptor = rat 5-HT6 receptor (Rattus norvegicus, UniProt P31388); conditions: cited from earlier work
Chain of rat 5-HT6 receptor (P31388 whole entry): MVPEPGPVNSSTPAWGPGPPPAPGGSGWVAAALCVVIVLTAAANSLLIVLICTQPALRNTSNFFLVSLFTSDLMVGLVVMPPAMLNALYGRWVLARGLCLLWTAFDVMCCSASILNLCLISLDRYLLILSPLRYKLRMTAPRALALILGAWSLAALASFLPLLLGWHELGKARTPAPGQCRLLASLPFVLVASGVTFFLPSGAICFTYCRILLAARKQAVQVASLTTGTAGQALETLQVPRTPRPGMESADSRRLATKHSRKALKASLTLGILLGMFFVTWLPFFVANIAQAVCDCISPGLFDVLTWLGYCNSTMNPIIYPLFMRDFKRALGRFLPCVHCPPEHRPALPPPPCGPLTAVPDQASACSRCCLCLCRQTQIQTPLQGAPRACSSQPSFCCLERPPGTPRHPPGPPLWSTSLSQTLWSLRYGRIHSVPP

[3] = target: human recombinant and native 5-HT6 receptors (Homo sapiens, UniProt P50406); conditions: cited from earlier work
Chain of human recombinant and native 5-HT6 receptors (P50406 whole entry): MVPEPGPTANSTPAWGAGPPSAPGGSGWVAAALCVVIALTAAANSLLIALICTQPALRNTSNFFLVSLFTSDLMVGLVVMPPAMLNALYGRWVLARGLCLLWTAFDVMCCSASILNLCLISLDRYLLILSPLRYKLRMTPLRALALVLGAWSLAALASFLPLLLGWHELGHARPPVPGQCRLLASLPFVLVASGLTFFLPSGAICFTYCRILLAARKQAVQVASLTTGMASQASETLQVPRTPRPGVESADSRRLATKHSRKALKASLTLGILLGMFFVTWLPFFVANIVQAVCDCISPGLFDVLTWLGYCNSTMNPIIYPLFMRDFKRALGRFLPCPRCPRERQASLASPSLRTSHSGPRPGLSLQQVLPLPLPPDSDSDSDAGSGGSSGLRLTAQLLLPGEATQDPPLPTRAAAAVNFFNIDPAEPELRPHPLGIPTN

5-HT6 receptor [4] = target: T1, 5-HT6 receptor (Homo sapiens, UniProt P50406); conditions: Arnt et al. (2010); cited from earlier work
T1 sequence (P50406 whole entry): as above

18 other receptors = conditions: concentration of 10 μM; cited from earlier work
5-HT6 receptor [5] = target: T1, 5-HT6 receptor; conditions: cited from earlier work
[6] = Test phase 60 minutes after administration

## COc1ccc(S(=O)(=O)Nc2cc(Cl)cc(Cl)c2OC)cc1N1CCNCC1 [compound 1, N-(3,5-dichloro-2-methoxyphenyl)-4-methoxy-3-(piperazin-1-yl)benzenesulfonamide]
Control mice
  mean discrimination ratio, compound+vehicle vs. vehicle alone: did not respond differently
Ts65Dn mice; 3 to 4 month-old Ts65Dn mice, 3.0 mg/kg i.p., Test phase 60 minutes after administration
  mean discrimination ratio compared to no treatment or treatment with vehicle alone: significant increase
Ts65Dn mice; 8-month-old Ts65Dn mice, 3.0 mg/kg i.p.
  discrimination ratio compared to no treatment or treatment with vehicle alone: significantly increased
Ts65Dn mice; 8-month-old Ts65Dn mice, tested two weeks after the treatment experiments
  persistence of the treatment effect on mean discrimination ratio: did not last
[1]
  brain penetration: brain penetrant
  oral activity: orally active

## COc1ccc2[nH]c(-c3ccccc3)c(CCN(C)C)c2c1 [compound 2, 2-(5-methoxy-2-phenyl-1H-indol-3-yl)-N,N-dimethylethanamine]
Ts65Dn mice; [6]
  cognition (discrimination ratio) compared to treatment with vehicle alone: significantly improves
[2]
  effect on scopolamine-induced memory deficits: reverse

## O=S(=O)(c1cccc2ccccc12)n1ccc2ccc(N3CCN4CCCC4C3)cc21 (stereo not shown) [compound 3, 2-(1-(naphthalen-1-ylsulfonyl)-1H-indol-6-yl)octahydropyrrolo[1,2-a]pyrazine]
Ts65Dn mice; [6]
  cognition (discrimination ratio) compared to treatment with vehicle alone: significantly increased

## CN1CCC(c2cn(C)c3ccc(OS(=O)(=O)c4c(F)cccc4F)cc23)CC1 [compound 4, 1-methyl-3-(1-methylpiperidin-4-yl)-1H-indol-5-yl 2,6-difluorobenzenesulfonate]
Ts65Dn mice; [6]
  cognition (discrimination ratio) compared to treatment with vehicle alone: trend to increased discrimination ratios

## CNc1cc(NS(=O)(=O)c2ccc(N)cc2)nc(NC)n1 [compound 5, 4-amino-N-(2,6-bis(methylamino)pyrimidin-4-yl)benzenesulfonamide]
Mouse 5-HT6 receptor
  binding to the mouse 5-HT6 receptor: does not bind; also recorded: does not recognize
Ts65Dn mice; Test phase 60 minutes after administration, 10 mg/kg
  cognition (discrimination ratio) compared to treatment with vehicle alone: does not restore cognition; also recorded: does not improve cognition; also recorded: lack of response; also recorded: did not alter the cognitive abilities
Rat 5-HT6 receptor
  recognition of the rat 5-HT6 receptor: recognizes the rat
[3]
  binding to the human 5-HT6 receptor: binds the human

## Fc1ccc2c(CCNCc3cccc(OCC(F)(F)C(F)F)c3)c[nH]c2c1 [compound 6, 2-(6-fluoro-1H-indol-3-yl)-N-(3-(2,2,3,3-tetrafluoropropoxyl)benzyl)ethanamine]
Ts65Dn mice
  cognitive performance (discrimination ratio) compared to no treatment / vehicle alone: significant increase
5-HT6 receptor [4]
  5-HT6 receptor agonist activity: no agonist activity

## O=S(=O)(c1ccccc1)c1cnc2c(N3CCNCC3)cccc2c1 [compound 7, 3-(phenylsulfonyl)-8-(piperazin-1-yl)quinoline]
Ts65Dn mice
  cognitive performance (discrimination ratio) compared to no treatment / vehicle alone: significantly improves

## Cc1ccc2c(c1)c1c(n2CCc2ccc(C)nc2)CCN(C)C1 [dimebolin]
18 other receptors
  inhibition of 18 other receptors: 50%
5-HT6 receptor [5]
  ability to bind as 5-HT6 receptor antagonist: approximately 20 times weaker
